The results in this text go back to patent US10918107B2, “Encapsulated lactams” (Conopco, Inc., priority 2015, dated 2021).

The series is described as follows: Solubility of the lactam in 2-heptanone carrier oil. In kind it is physicochemical. The note with it: 'also soluble at 1%' (0.5% solution used in the example). Here is the method: 2-heptanone was used as the carrier (oil phase) for the lactam at a ratio of 1:199 (Lactam:Heptanone) which equates to 0.5% lactam solution. The inventor(s) have determined that the lactam is also soluble at 1%. The isocyanate was polymethylene polyphenyl isocyanate (Mn340) and the crosslinker was hexamethylenediamine (HMDA). Emulsification was carried out at a shear of 15K. The stabiliser is a commercial naphthalene sulphonate called Morwet-D425®. Morwet forms dark brown solutions so the encapsulated slurry is often buff/brown coloured.

Molecules are shown by their SMILES. A value given as a limit tells only on which side of the number the result lay.

On to `C=C1NC(=O)C=C1c1ccc(Cl)cc1` [Ref. 488, 4-(4-chlorophenyl)-5-methylene-pyrrol-2-one], for which the “solubility of lactam in 2-heptanone (carrier oil)” value was no less than 1%.
